In the assay the target is T1, HIV-1 protease (Human immunodeficiency virus type 1 group M subtype B, UniProt P04585).
T1 construct: The protease (or proteinase), consisting of only 99 amino acids, is among the smallest enzymes known
Kind of assay: In vitro HIV protease inhibitory assay (HIV Protease FITC Assay). The format is biochemical. The note with it: for inhibition at 0.123 µM / inhibition at 0.37 µM / inhibition at 1.1 µM / inhibition at 3.3 µM / inhibition at 10 µM / inhibition at 30 µM / inhibition at 100 µM / inhibition at 0.41 µM / inhibition at 1.23 µM / inhibition at 3.7 µM / inhibition at 11 µM / inhibition at 33 µM / inhibition at 1 µM: read-out: HIV-1 Protease % Inhib; for inhibition at 0.41 µM: HIV-1 Dose 0.410 uM; for inhibition at 1.23 µM: HIV-1 Dose 1.230 uM; for inhibition at 3.7 µM: HIV-1 Dose 3.700 uM; for inhibition at 11 µM: HIV-1 Dose 11.000 uM; for inhibition at 33 µM: HIV-1 Dose 33.000 uM. In a few lines: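 Biotin/FITC-labelled peptide substrate cleaved by HIV-1 protease for 1 h at room temperature in the dark, in 0.1 M sodium acetate pH 5.5, 1.0 M NaCl, 0.05% NP-40. Uncleaved substrate captured on avidin beads and separated by filtration; fluorescence gave % inhibition.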

Results on 16 molecules are retold here after patent EP1203770A1 (priority 1992, dated 1994).

Read-outs that look alike come from different tables or passages of the source.

Take `O=c1oc(CC(O)c2ccsc2)cc(O)c1C(c1ccccc1)C1CC1` (stereo not drawn) [Example 153, 3-(α-cyclopropylbenzyl)-4-hydroxy-6-(2-(thiophen-3-yl)-2-hydroxyethyl)-2H-pyran-2-one]: the inhibition at 0.123 µM (HIV-1 Dose 0.123 uM) was less than 10%. Also, under “HIV-1 Dose 0.370 uM”, the inhibition at 0.37 µM stood at 17.7%. Also, the inhibition at 1.1 µM (HIV-1 Dose 1.100 uM) was 40.3%. For the same molecule, the inhibition at 3.3 µM (HIV-1 Dose 3.300 uM) came out at 69%. Also, the inhibition at 10 µM (HIV-1 Dose 10.000 uM) is 88.6%. The inhibition at 30 µM (HIV-1 Dose 30.000 uM) amounted to 99.7%. Besides, under “HIV-1 Dose 100.000 uM”, the inhibition at 100 µM is 120%.
Regarding `O=c1oc(CC(O)c2ccoc2)cc(O)c1C(c1ccccc1)C1CC1` (stereo not drawn) [Example 152, 3-(α-cyclopropylbenzyl)-4-hydroxy-6-(2-(furan-3-yl)-2-hydroxyethyl)-2H-pyran-2-one], the inhibition at 0.123 µM (HIV-1 Dose 0.123 uM) was less than 10%. Further, the inhibition at 0.37 µM (HIV-1 Dose 0.370 uM) was less than 10%. The inhibition at 1.1 µM (HIV-1 Dose 1.100 uM) was 26.4%. Besides, the inhibition at 3.3 µM (HIV-1 Dose 3.300 uM) turned out to be 48.8%. Also, the inhibition at 10 µM (HIV-1 Dose 10.000 uM) was found to be 77.6%. In addition, the inhibition at 30 µM (HIV-1 Dose 30.000 uM) came to 90.5%. The inhibition at 100 µM (HIV-1 Dose 100.000 uM) was determined as 110%.
As to `CCC(CC1CCCCO1)c1cc(O)c(C(c2ccccc2)C2CC2)c(=O)o1` (stereo not shown) [Example 62, 3-(Cyclopropyl-phenyl-methyl)-4-hydroxy-6-(1-(tetrahydro-pyran-2-ylmethyl)-propyl)-pyran-2-one], the inhibition at 0.41 µM is 85.7%, the inhibition at 1.23 µM is 95.8%, the inhibition at 3.7 µM is 108% and the inhibition at 11 µM came to 116%. Also, the inhibition at 33 µM came out at 113%. For the same molecule, the inhibition at 100 µM (HIV-1 Dose 100.000 uM) worked out at 123%. Also, the Ki – broadly, the dissociation constant of the complex between target and ligand, obtained from inhibition or displacement – (read-out: HIV-1 FITC Ki) turned out to be 74 nM.
Consider `CCC(Cc1cccs1)c1cc(O)c(C(c2ccccc2)C2CC2)c(=O)o1` (stereo not shown) [Example 57, 3-(Cyclopropyi-phenyl-methyl)-4-hydroxy-6-(1-thiophen-2-ylmethyl-propyl)-pyran-2-one], for which the inhibition at 0.41 µM came out at 76.7%, the inhibition at 1.23 µM worked out at 89.4%, the inhibition at 3.7 µM came to 103% and the inhibition at 11 µM is 108%. Also, the inhibition at 33 µM was 114%. Under “HIV-1 Dose 100.000 uM”, the inhibition at 100 µM stood at 116%. The Ki (read-out: HIV-1 FITC Ki) turned out to be 63 nM.
Take `COCCOCCC(Cc1ccccc1)c1cc(O)c(C(c2ccccc2)C2CC2)c(=O)o1` (stereo not shown) [Example 107, 6-(1-Benzyl-3-(2-methoxy-ethoxy)-propyl)-3-(cyclopropyl-phenyl-methyl)-4-hydroxy-pyran-2-one]: the inhibition at 0.41 µM turned out to be 50%, the inhibition at 1.23 µM was 80.3%, the inhibition at 3.7 µM turned out to be 100% and the inhibition at 11 µM came out at 103%. For the same molecule, the inhibition at 33 µM was found to be 109%. For the same molecule, where the note is “HIV-1 Dose 100.000 uM”, the inhibition at 100 µM amounted to 110%. Further, the Ki (read-out: HIV-1 FITC Ki) came out at 41 nM.
On to `CCC(Cc1ccc(Br)cc1)c1cc(O)c(C(c2ccccc2)C2CC2)c(=O)o1` (stereo not drawn) [Example 158, 3-(α-cyclopropylbenzyl)-4-hydroxy-6-(α-ethyl-p-bromophenethyl)-2H-pyran-2-one], for which the inhibition at 0.123 µM (HIV-1 Dose 0.123 uM) turned out to be 15.7%. In addition, for the setting “HIV-1 Dose 0.370 uM”, the inhibition at 0.37 µM was 44.2%. Moreover, the inhibition at 1.1 µM (HIV-1 Dose 1.100 uM) came to 70.5%. The inhibition at 3.3 µM (HIV-1 Dose 3.300 uM) stood at 87%. Besides, the inhibition at 10 µM (HIV-1 Dose 10.000 uM) amounted to 100%. Further, the inhibition at 30 µM (HIV-1 Dose 30.000 uM) was 96.1%. The inhibition at 100 µM (HIV-1 Dose 100.000 uM) was 115%. Also, the Ki (read-out: HIV-1 FITC Ki) was found to be 55 nM.
Take `Cc1cc(O)c(C(c2ccccc2)C2CC2)c(=O)o1` (stereo not drawn) [Example 20, 3-(α-cyclopropylbenzyl)-4-hydroxy-6-methyl-2H-Pyran-2-one]: the inhibition at 1 µM (HIV-1 Dose 1.000 uM) was less than 10%. For the same molecule, the inhibition at 10 µM (HIV-1 Dose 10.000 uM) is less than 10%. Under “HIV-1 Dose 100.000 uM”, the inhibition at 100 µM was 60.6%.
`CCCC1(CCCc2ccccc2)CC(O)=C(C(CCc2ccccc2)c2ccccc2)C(=O)O1` (stereo not shown) [Example 239, 2H-Pyran-2-one, 5,6-dihydro-4-hydroxy-3-(1,3-diphenylpropyl)-6-(3-phenylpropyl)-6-propyl-]: the inhibition at 0.123 µM (HIV-1 Dose 0.123 uM) was less than 10%. Under “HIV-1 Dose 0.370 uM”, the inhibition at 0.37 µM turned out to be 35.8%. Further, the inhibition at 1.1 µM (HIV-1 Dose 1.100 uM) worked out at 63.9%. In addition, the inhibition at 3.3 µM (HIV-1 Dose 3.300 uM) was determined as 79.8%. Besides, for the setting “HIV-1 Dose 10.000 uM”, the inhibition at 10 µM came out at 91%. In addition, the inhibition at 30 µM (HIV-1 Dose 30.000 uM) amounted to 85.7%. Moreover, under “read-out: HIV-1 FITC Ki”, the Ki turned out to be 99 nM.
As to `CCC(Cc1ccccc1)c1cc(O)c(C(c2cccc(NC(=O)OCc3ccccc3)c2)C2CC2)c(=O)o1` (stereo not drawn) [Example 36, 3-(α-Cyclopropyl-meta-(benzyloxycarbonylamino)benzyl)-6-(α-ethyl-phenethyl)-4-hydroxy-2H-pyran-2-one], the inhibition at 0.41 µM was less than 10%, the inhibition at 1.23 µM came out at 13.7%, the inhibition at 3.7 µM amounted to 43.4% and the inhibition at 11 µM came out at 73.7%. Further, the inhibition at 33 µM came to 77.2%. Moreover, the inhibition at 100 µM (HIV-1 Dose 100.000 uM) is 87.5%.
Consider `CCC(Cc1ccccc1C(F)(F)F)c1cc(O)c(C(c2ccccc2)C2CC2)c(=O)o1` (stereo not drawn) [Example 162, 3-(α-cyclopropylbenzyl)-4-hydroxy-6-(α-ethyl-o-triflurormethylphenethyl)-2H-pyran-2-one], for which the inhibition at 0.123 µM (HIV-1 Dose 0.123 uM) is less than 10%. The inhibition at 0.37 µM (HIV-1 Dose 0.370 uM) is less than 10%. Moreover, the inhibition at 1.1 µM (HIV-1 Dose 1.100 uM) was less than 10%. The inhibition at 3.3 µM (HIV-1 Dose 3.300 uM) was determined as 34.4%. Further, the inhibition at 10 µM (HIV-1 Dose 10.000 uM) came out at 52%. Moreover, the inhibition at 30 µM (HIV-1 Dose 30.000 uM) turned out to be 72.3%.
Turning to `CCC(c1ccccc1)c1c(O)cc(C(Cc2ccccc2)Cc2ccccc2)oc1=O` (stereo not shown) [Example 101, 6-(1-Benzyl-2-phenyl-ethyl)-4-hydroxy-3-(1-phenyl-propyl)-pyran-2-one], for the setting “HIV-1 Dose 1.000 uM”, the inhibition at 1 µM is 52.2%. For the same molecule, the inhibition at 10 µM (HIV-1 Dose 10.000 uM) was found to be 78.8%. Further, the inhibition at 100 µM (HIV-1 Dose 100.000 uM) turned out to be 97.9%.
For `CCC(CCOC1CCCCO1)c1cc(O)c(C(c2ccccc2)C2CC2)c(=O)o1` (stereo not shown) [Example 67], the “HIV-1 Protease % Inhib” value reads like this: (HIV-1 Dose 0.123 uM) less than 10%; (HIV-1 Dose 0.370 uM) 32.64%; (HIV-1 Dose 1.100 uM) 72.63%; (HIV-1 Dose 3.300 uM) 92.3%; (HIV-1 Dose 10.000 uM) 106.66%; (HIV-1 Dose 30.000 uM) 118.42%. Moreover, under “read-out: HIV-1 FITC Ki”, the Ki was 84 nM.
Regarding `CCCC1(c2ccccc2)CC(O)=C(C(CC)c2ccccc2)C(=O)O1` (stereo not shown) [Example 32, 5,6-Dihydro-4-hydroxy-6-phenyl-6-propyl-3-(1-phenylpropyl)-2H-pyran-2-one], the affinity corresponds to a Ki of 250 nM, the inhibition at 1 µM was 56.1%, the inhibition at 10 µM worked out at 106% and the inhibition at 100 µM is 93.1%.
For `CC(C)C(Cc1ccccc1)c1cc(O)c(C(c2ccccc2)C2CC2)c(=O)o1` (stereo not shown) [Example 133, 3-(Cyclopropylphenylmethyl)4-hydroxy-6-[2-methyl-1-(phenylmethyl)propyl]-2H-pyran-2-one], under “HIV-1 Dose 0.123 uM”, the inhibition at 0.123 µM came to 20.6%. Also, the inhibition at 0.37 µM (HIV-1 Dose 0.370 uM) was found to be 49.6%. Moreover, the inhibition at 1.1 µM (HIV-1 Dose 1.100 uM) worked out at 74.3%. Besides, the inhibition at 3.3 µM (HIV-1 Dose 3.300 uM) was determined as 95.9%. For the same molecule, the inhibition at 10 µM (HIV-1 Dose 10.000 uM) is 110%. The inhibition at 30 µM (HIV-1 Dose 30.000 uM) is 102%. Moreover, the Ki (read-out: HIV-1 FITC Ki) turned out to be 40 nM.
Take `CC[C@H](Cc1ccccc1)c1cc(O)c([C@@H](CC)c2ccccc2)c(=O)o1` [Example 189, 3-([S]-α-ethylbenzyl)-4-hydroxy-6-([R]-α-ethylphenethyl)-2H-pyran-2-one]: where the note is “read-out: HIV-1 FITC Ki”, the Ki is roughly 15 nM.
As for `O=c1oc(CCC2CC2)cc(O)c1C(c1ccccc1)C1CC1` (stereo not shown) [Example 89, 6-(2-Cyclopropyl-ethyl)-3-(cyclopropyl-phenyl-methyl)-4-hydroxy-pyran-2-one], the inhibition at 1 µM (HIV-1 Dose 1.000 uM) was less than 10%. Further, the inhibition at 10 µM (HIV-1 Dose 10.000 uM) stood at 70%. In addition, the inhibition at 100 µM (HIV-1 Dose 100.000 uM) stood at 84%. The “HIV-1 Protease % Inhib” value (dose not given) is given as less than 10%.
